Source: ChEMBL document CHEMBL1201862, “PubChem BioAssay data set” (2004)
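Step 1: Grow cells in 96-well plates. Step 2: Expose to compound for 48 hours at 5 concentrations. Step 3: Interpolate endpoints linearly; if unreached, use highest concentration. GI50: concentration for 50% inhibition of growth.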 Calls of active or inactive are those of the source. Rule as the data show it: active = GI50 up to about 1.1 µM and inactive = higher.

Columns and labels:
Assay in all cases: DTP human tumour cell line panel, 48 h
UACC-62 = test system: UACC-62
EKVX = test system: EKVX
RXF 393 = test system: RXF 393
HCT-116 = test system: HCT-116
MDA-N = test system: MDA-N
SK-MEL-2 = test system: SK-MEL-2
Malme-3M = test system: Malme-3M
UO-31 = test system: UO-31
T47D = test system: T47D
CCRF-CEM = test system: CCRF-CEM
LOX IMVI = test system: LOX IMVI
IGROV-1 = test system: IGROV-1
ACHN = test system: ACHN
HOP-62 = test system: HOP-62
SK-MEL-28 = test system: SK-MEL-28
KM12 = test system: KM12
HL-60 = test system: HL-60
OVCAR-5 = test system: OVCAR-5
SF-295 = test system: SF-295
A498 = test system: A498
UACC-257 = test system: UACC-257
NCI-H522 = test system: NCI-H522
NCI-H23 = test system: NCI-H23
MDA-MB-435 = test system: MDA-MB-435
MOLT-4 = test system: MOLT-4
BT-549 = test system: BT-549
SNB-75 = test system: SNB-75
SK-MEL-5 = test system: SK-MEL-5
786-0 = test system: 786-0
M14 = test system: M14
U-251 = test system: U-251
NCI/ADR-RES = test system: NCI/ADR-RES
CAKI-1 = test system: CAKI-1
HT-29 = test system: HT-29
OVCAR-8 = test system: OVCAR-8
SF-268 = test system: SF-268
SK-OV-3 = test system: SK-OV-3
COLO 205 = test system: COLO 205
SW-620 = test system: SW-620
SF-539 = test system: SF-539
DU-145 = test system: DU-145
OVCAR-4 = test system: OVCAR-4
MCF7 = test system: MCF7
MDA-MB-231 = test system: MDA-MB-231
SN12C = test system: SN12C
TK-10 = test system: TK-10
HCT-15 = test system: HCT-15
NCI-H226 = test system: NCI-H226
A549 = test system: A549
Hs-578T = test system: Hs-578T
PC-3 = test system: PC-3
SNB-19 = test system: SNB-19

Measured: GI50

C/C=C1\CC(C(=O)OCC)CCCCCCC1=O (stereo not drawn)
inactive: UACC-62 59.2 µM | EKVX > 100 µM | RXF 393 > 100 µM | HCT-116 > 100 µM | MDA-N > 100 µM | SK-MEL-2 > 100 µM | Malme-3M > 100 µM | UO-31 > 100 µM | T47D > 100 µM | CCRF-CEM 19.1 µM | LOX IMVI > 100 µM | IGROV-1 > 100 µM | ACHN > 100 µM | HOP-62 > 100 µM | SK-MEL-28 > 100 µM | KM12 > 100 µM | HL-60 51.1 µM | OVCAR-5 > 100 µM | SF-295 > 100 µM | A498 > 100 µM | UACC-257 > 100 µM | NCI-H522 99.8 µM | NCI-H23 > 100 µM | MDA-MB-435 > 100 µM | MOLT-4 > 100 µM | BT-549 > 100 µM | SNB-75 69 µM | SK-MEL-5 > 100 µM | 786-0 > 100 µM | M14 > 100 µM | U-251 > 100 µM | NCI/ADR-RES > 100 µM | CAKI-1 > 100 µM | HT-29 > 100 µM | OVCAR-8 > 100 µM | SF-268 > 100 µM | SK-OV-3 > 100 µM | COLO 205 > 100 µM | SW-620 > 100 µM | SF-539 > 100 µM | DU-145 > 100 µM | OVCAR-4 > 100 µM | MCF7 > 100 µM | MDA-MB-231 > 100 µM | SN12C > 100 µM | TK-10 > 100 µM | NCI-H226 > 100 µM | A549 > 100 µM | Hs-578T > 100 µM | PC-3 > 100 µM | SNB-19 > 100 µM
> 100 µM: HCT-15

COCN1C(=O)[C@@H]2CCCN2C(=O)c2cc(OC)c(Cc3ccccc3)cc21
inactive: UACC-62 > 100 µM | EKVX > 100 µM | RXF 393 34.3 µM | HCT-116 62.4 µM | MDA-N > 100 µM | SK-MEL-2 > 100 µM | Malme-3M > 100 µM | UO-31 57 µM | T47D 43.3 µM | LOX IMVI > 100 µM | IGROV-1 62.7 µM | ACHN > 100 µM | HOP-62 > 100 µM | SK-MEL-28 > 100 µM | KM12 > 100 µM | OVCAR-5 > 100 µM | SF-295 > 100 µM | A498 > 100 µM | UACC-257 > 100 µM | NCI-H522 83.9 µM | NCI-H23 > 100 µM | MDA-MB-435 70.1 µM | BT-549 81.8 µM | SNB-75 60.4 µM | 786-0 > 100 µM | M14 > 100 µM | U-251 94.6 µM | NCI/ADR-RES > 100 µM | CAKI-1 > 100 µM | HT-29 93.3 µM | OVCAR-8 > 100 µM | SF-268 > 100 µM | SK-OV-3 > 100 µM | SW-620 > 100 µM | SF-539 > 100 µM | DU-145 > 100 µM | OVCAR-4 43.7 µM | MCF7 61.5 µM | MDA-MB-231 49.5 µM | SN12C > 100 µM | TK-10 > 100 µM | A549 83.6 µM | Hs-578T > 100 µM | PC-3 74.5 µM | SNB-19 > 100 µM
> 100 µM: HCT-15
